Read-outs that look alike come from different tables or passages of the source.
Experiments:
[1] = system: Spontaneously hypertensive male rats; assay: Experiment 1-1 Hypotensive activity (oral, conscious spontaneously hypertensive rats); assay type: in vivo, rat; conditions: 10 mg/kg oral; for Maximum hypotension: mean blood pressure
Description: Spontaneously hypertensive male rats (13-15 week age, one group: 3 rats) were used. […] The rats were fixed in a Howlman cage without fasting, and the femoral arterial pressure was measured by a direct method without anesthesia with a cannula which was previously inserted into the femoral artery of the animal, via a pressure transducer (MPU-0.5, manufactured by Nippon Koden K.K.). The test compounds were orally administered in the form of a suspension in 0.5% methyl cellulose solution in a dose of 10 mg/kg (in some compounds, 3 mg/kg). In the control group, only 0.5% methyl cellulose solution was administered likewise. The blood pressure was measured for 5 hours after the administration of test compounds.

isolated aorta = assay: Experiment 3 Relaxing activity on the isolated aorta (30 mM KCl contracted); parameters: species or system Japanese white rabbit; conditions: for EC50: Oryctolagus cuniculus, 30 mM KCl contraction, maximum relaxation by papaverine = 100%, read-out: EC50 (concentration for 50% relaxation); for relaxing / vasodilating activity on isolated aorta (in words): Table 8, comparison with nifedipine and nicardipine hydrochloride, etc. where stated
Description: Japanese white rabbit (weighing 2.3-2.7 kg) was sacrificed by bleeding from common carotid artery. Immediately, the aorta was isolated and cut into a sprial strip. The strip preparation was vertically suspended under a resting tension of 2.0 g in a tissue bath containing 20 ml of modified Ringer solution while bubbling with a mixture of 95% O2 +5% CO2 by connecting one end of the strip to a lever of the above-mentioned FD pick up. The aortic strip was contracted with 30 mM KCl. When the contraction became constant, the test compound was accumulatively administered, and the relaxing effect was measured. After the final treatment, 10^-4T M papaverine was administered and the maximum relaxation obtained thereby was taken as 100%. In comparison with the maximum relaxation obtained by papaverine, the rate of relaxation by the test compounds was evaluated, and the concentration of the test compounds for obtaining 50% relaxation (EC50) was calculated.
The test compound was dissolved in ethanol, and the solution was diluted in 100 to 1×10^4 folds with a nutrient solution, and the diluted solution was administered.

isolated heart [2] = assay: Experiment 2-1 Activity on isolated heart; parameters: species or system Japanese white rabbit; conditions: Oryctolagus cuniculus, 3 μg/heart; for activation at 3 µg/heart: read-out: Increase of coronary perfusion; for inhibition at 3 µg/heart, 3 µg/heart: read-out: Inhibitory rate of systole; for inhibition at 3 µg/heart: read-out: Reducing rate of heart pulse
Description: Japanese white rabbit (weighing 2.2-2.5 kg) was anesthetized by introvenous injection of nembutal (20 mg/kg) and then sacrificed by bleeding from common carotid artery. […] After stabilizing the heart preparation for 90 minutes, the test compound was administered. There were measured the perfusion volume with a drop-counting meter (ET-600G type, manufactured by Nippon Koden K.K.) and the heart pulse and the contractility via a force-displacement transducer (FD pick up, SB-IT type, manufactured by Nippon Koden K.K.) (for measuring heart pulse, an instant pulse meter (AT-601G type, minufactured by Nippon Koden K.K.) being further used).

isolated heart [3] = assay: Experiment 2-2 Activity onto the isolated heart (with duration); parameters: species or system Japanese white rabbit; conditions: for Coronary perfusion Duration: time until perfusion volume returned to initial level; for activation at 3 µg/heart / inhibition at 3 µg/heart / activation at 1 µg/heart / inhibition at 1 µg/heart: Oryctolagus cuniculus; for activation at 3 µg/heart / activation at 1 µg/heart: read-out: Coronary perfusion Increase
Description: Japanese white rabbit (weighing 2.2-2.5 kg) was anesthetized by introvenous injection of nembutal (20 mg/kg) and then sacrificed by bleeding from common carotid artery. […] There were measured the perfusion volume with a drop-counting meter (ET-600G type, manufactured by Nippon Koden K.K.) and the heart pulse and the contractility via a force-displacement transducer (FD pick up, SB-IT type, manufactured by Nippon Koden K.K.) (for measuring heart pulse, an instant pulse meter (AT-601G type, minufactured by Nippon Koden K.K.) being further used).
The test compounds were dissolved in ethanol, and the solution was diluted in 100-fold with purified water, and the diluted solution was administered in an amount of 0.1 ml/heart (i.e. 3 μg/heart).
The activity was measured in the same manner as described in Experiment 2-1 except that in some test compounds, the dose was in 1 μg/heart. Besides, the duration of the activity was evaluated by counting the time until the coronary perfusion volume became to the initial level before the administration of the test compound.

[4] = 3 μg/heart, read-out: Inhibitory rate of systole
[5] = 3 μg/heart, read-out: Reducing rate of heart pulse
[6] = 1 μg/heart, read-out: Inhibitory rate of systole
[7] = 1 μg/heart, read-out: Reducing rate of heart pulse

EC50 (isolated aorta)	SMILES	Coronary perfusion Duration (isolated heart [3]; 3 μg/heart)	activation at 3 µg/heart (isolated heart [3]; 3 μg/heart)	inhibition at 3 µg/heart (isolated heart [3]; [4])	inhibition at 3 µg/heart (isolated heart [3]; [5])	also measured
> 1000 nM	COC(=O)C1=C(C)NC(C)=C(C(N)=O)C1c1ccccc1[N+](=O)[O-] (centres unmarked) [C, reference compound]					Recovering time [1]: 2.0 h; Time for recovering 1/2 of max. hypotension [1]: 1.5 h; Time until reaching to max. hypotension [1]: 15 min; Maximum hypotension [1]: 20 mmHg; activation at 3 µg/heart (isolated heart [2]): 16%; inhibition at 3 µg/heart, 3 µg/heart (isolated heart [2]): 17%; inhibition at 3 µg/heart (isolated heart [2]): 7%
	CCNC(=O)C1=C(C)NC(C)=C(C(=O)OC)C1c1ccccc1[N+](=O)[O-] (centres unmarked) [D, reference compound]					activation at 3 µg/heart (isolated heart [2]): 20%; inhibition at 3 µg/heart, 3 µg/heart (isolated heart [2]): 15%; inhibition at 3 µg/heart (isolated heart [2]): 5%
> 1000 nM	CCOC(=O)C1=C(C)NC(C)=C(C(=O)N(C)C)C1c1cccc([N+](=O)[O-])c1 (centres unmarked) [E, reference compound]					Recovering time [1]: 1.0 h; Time for recovering 1/2 of max. hypotension [1]: 0.5 h; Time until reaching to max. hypotension [1]: 15 min; Maximum hypotension [1]: 5 mmHg; activation at 3 µg/heart (isolated heart [2]): 0%; inhibition at 3 µg/heart, 3 µg/heart (isolated heart [2]): 0%; inhibition at 3 µg/heart (isolated heart [2]): 1%
670 nM	CCOC(=O)C1=C(C)NC(C)=C(C(N)=O)C1c1ccccc1[N+](=O)[O-] (centres unmarked) [Example 9]					
400 nM	CCCOC(=O)C1=C(C)NC(C)=C(C(N)=O)C1c1ccccc1[N+](=O)[O-] (centres unmarked) [Example 10]					
320 nM	CC1=C(C(N)=O)C(c2ccccc2[N+](=O)[O-])C(C(=O)OC(C)C)=C(C)N1 (centres unmarked) [Example 11]					
610 nM	CCCCCOC(=O)C1=C(C)NC(C)=C(C(N)=O)C1c1ccccc1[N+](=O)[O-] (centres unmarked) [Example 16]					
710 nM	CC1=C(C(N)=O)C(c2ccccc2[N+](=O)[O-])C(C(=O)OC(C)C(C)C)=C(C)N1 (centres unmarked) [Example 18]					
31 nM	CCNC(=O)C1=C(C)NC(C)=C(C(=O)OCCC(C)C)C1c1ccccc1[N+](=O)[O-] (centres unmarked) [Example 33]					relaxing / vasodilating activity on isolated aorta (in words) (isolated aorta): the same or more potent activity
40 nM	CCCCCOC(=O)C1=C(C)NC(C)=C(C(=O)NCCC)C1c1ccccc1[N+](=O)[O-] (centres unmarked) [Example 39]					relaxing / vasodilating activity on isolated aorta (in words) (isolated aorta): the same or more potent activity
	CCCNC(=O)C1=C(C)NC(C)=C(C(=O)OCCC(C)C)C1c1ccccc1[N+](=O)[O-] (centres unmarked) [Example 40]					activation at 3 µg/heart (isolated heart [2]): 25%; inhibition at 3 µg/heart, 3 µg/heart (isolated heart [2]): 14%; inhibition at 3 µg/heart (isolated heart [2]): 1%
130 nM	CCCCCCOC(=O)C1=C(C)NC(C)=C(C(=O)NCCC)C1c1ccccc1[N+](=O)[O-] (centres unmarked) [Example 41]					
380 nM	CCCCCCCOC(=O)C1=C(C)NC(C)=C(C(=O)NCCC)C1c1ccccc1[N+](=O)[O-] (centres unmarked) [Example 42]					
700 nM	CCC(CC)OC(=O)C1=C(C)NC(C)=C(C(=O)NC(C)C)C1c1ccccc1[N+](=O)[O-] (centres unmarked) [Example 50]					
150 nM	CCCOC(=O)C1=C(C)NC(C)=C(C(=O)NC(C)C)C1c1cccc([N+](=O)[O-])c1 (centres unmarked) [Example 62]					activation at 3 µg/heart (isolated heart [2]): 20%; inhibition at 3 µg/heart, 3 µg/heart (isolated heart [2]): 2%; inhibition at 3 µg/heart (isolated heart [2]): 6%
	CC1=C(C(=O)NC(C)C)C(c2cccc([N+](=O)[O-])c2)C(C(=O)OC(C)C)=C(C)N1 (centres unmarked) [Example 63]					Recovering time [1]: 1.5 h; Time for recovering 1/2 of max. hypotension [1]: 1.0 h; Time until reaching to max. hypotension [1]: 15 min; Maximum hypotension [1]: 7 mmHg

EC50 (isolated aorta)	SMILES	Coronary perfusion Duration (isolated heart [3]; 3 μg/heart)	activation at 3 µg/heart (isolated heart [3]; 3 μg/heart)	inhibition at 3 µg/heart (isolated heart [3]; [4])	inhibition at 3 µg/heart (isolated heart [3]; [5])	also measured
70 nM	CCCCCOC(=O)C1=C(C)NC(C)=C(C(=O)NC(C)C)C1c1cccc([N+](=O)[O-])c1 (centres unmarked) [Example 66]					relaxing / vasodilating activity on isolated aorta (in words) (isolated aorta): the same or more potent activity; activation at 3 µg/heart (isolated heart [2]): 16%; inhibition at 3 µg/heart, 3 µg/heart (isolated heart [2]): 15%; inhibition at 3 µg/heart (isolated heart [2]): 13%
570 nM	CCCCNC(=O)C1=C(C)NC(C)=C(C(=O)OCCCC)C1c1cccc([N+](=O)[O-])c1 (centres unmarked) [Example 69]					
	COC(=O)C1=C(C)NC(C)=C(C(=O)NC2CC2)C1c1ccccc1[N+](=O)[O-] (centres unmarked) [Example 80, methyl 2,6-dimethyl-3-cyclopropylaminocarbonyl-4-(o-nitrophenyl)-1,4-dihydropyridine-5-carboxylate]	< 10 min	25%	15%	5%	
	CCCCCCCOC(=O)C1=C(C)NC(C)=C(C(=O)NC2CC2)C1c1ccccc1[N+](=O)[O-] (centres unmarked) [Example 81, n-heptyl 2,6-dimethyl-3-cyclopropylaminocarbonyl-4-(o-nitrophenyl)-1,4-dihydropyridine-5-carboxylate]	10 to 15 min	15%	15%	0%	
	COC(=O)C1=C(C)NC(C)=C(C(=O)NC2CCCC2)C1c1ccccc1[N+](=O)[O-] (centres unmarked) [Example 84, methyl 2,6-dimethyl-3-cyclopentylaminocarbonyl-4-(o-nitrophenyl)-1,4-dihydropyridine-5-carboxylate]					Coronary perfusion Duration (isolated heart [3]; 1 μg/heart): 20 to 30 min; activation at 1 µg/heart (isolated heart [3]; 1 μg/heart): 30%; inhibition at 1 µg/heart (isolated heart [3]; [6]): 15%; inhibition at 1 µg/heart (isolated heart [3]; [7]): 20%
	CCCCCCCCOC(=O)C1=C(C)NC(C)=C(C(=O)NC2CCCC2)C1c1ccccc1[N+](=O)[O-] (centres unmarked) [Example 86, n-octyl 2,6-dimethyl-3-cyclopentylaminocarbonyl-4-(o-nitrophenyl)-1,4-dihydropyridine-5-carboxylate]					Coronary perfusion Duration (isolated heart [3]; 1 μg/heart): 60 min; activation at 1 µg/heart (isolated heart [3]; 1 μg/heart): 50%; inhibition at 1 µg/heart (isolated heart [3]; [6]): 15%; inhibition at 1 µg/heart (isolated heart [3]; [7]): 20%
	CCCCCCCCCOC(=O)C1=C(C)NC(C)=C(C(=O)NC2CCCC2)C1c1ccccc1[N+](=O)[O-] (centres unmarked) [Example 87, n-nonyl 2,6-dimethyl-3-cyclopentylaminocarbonyl-4-(o-nitrophenyl)-1,4-dihydropyridine-5-carboxylate]					Coronary perfusion Duration (isolated heart [3]; 1 μg/heart): 60 min; activation at 1 µg/heart (isolated heart [3]; 1 μg/heart): 40%; inhibition at 1 µg/heart (isolated heart [3]; [6]): 15%; inhibition at 1 µg/heart (isolated heart [3]; [7]): 5%
	CCOC(=O)C1=C(C)NC(C)=C(C(=O)NC2CC2)C1c1ccccc1[N+](=O)[O-] (centres unmarked) [Example 88]	< 10 min	35%	30%	30%	
	CCCOC(=O)C1=C(C)NC(C)=C(C(=O)NC2CC2)C1c1ccccc1[N+](=O)[O-] (centres unmarked) [Example 89]	< 10 min	30%	35%	30%	
	CC1=C(C(=O)NC2CC2)C(c2ccccc2[N+](=O)[O-])C(C(=O)OC(C)C)=C(C)N1 (centres unmarked) [Example 90]	< 10 min	15%	10%	5%	
	CCCCOC(=O)C1=C(C)NC(C)=C(C(=O)NC2CC2)C1c1ccccc1[N+](=O)[O-] (centres unmarked) [Example 91]	< 10 min	20%	35%	10%	
	CC1=C(C(=O)NC2CC2)C(c2ccccc2[N+](=O)[O-])C(C(=O)OCC(C)C)=C(C)N1 (centres unmarked) [Example 92]	< 10 min	10%	10%	5%	
	CCCCCOC(=O)C1=C(C)NC(C)=C(C(=O)NC2CC2)C1c1ccccc1[N+](=O)[O-] (centres unmarked) [Example 93]	20 min	20%	20%	15%	
	CC1=C(C(=O)NC2CC2)C(c2ccccc2[N+](=O)[O-])C(C(=O)OCCC(C)C)=C(C)N1 (centres unmarked) [Example 94]	< 10 min	15%	10%	0%	
	CCCCCCOC(=O)C1=C(C)NC(C)=C(C(=O)NC2CC2)C1c1ccccc1[N+](=O)[O-] (centres unmarked) [Example 95]	10 to 15 min	20%	15%	10%	
	CC1=C(C(=O)NC2CC2)C(c2ccccc2[N+](=O)[O-])C(C(=O)OCCCC(C)C)=C(C)N1 (centres unmarked) [Example 96]	< 10 min	20%	10%	0%	

— patent publication US4874773A, “3-Aminocarbonyl-1,4-dihydropyridine-5-carboxylic acid compounds, and pharmaceutical composition containing the same” (priority 1985, dated 1989)
